Columns and labels:
human TRPA1 ion channel = human TRPA1 ion channel (Homo sapiens (Human), UniProt O75762); assay: Assay A: TRPA1 assay (FLIPR calcium, AITC agonism, HEK293 over-expressing human TRPA1); type: cell-based; settings: HEK293 over-expressing human TRPA1, AITC 10 μM, FLIPRtetra; read-out: hTRPA1 IC50
Experimental: A human HEK293 cell line over-expressing the human TRPA1 ion channel (Perkin Elmer, Product No. AX-004-PCL) was used as a test system for compound efficacy and potency. Compound activity was determined by measuring the effect of compounds on intracellular calcium concentration induced by AITC (Allylisothiocyanat) agonism in a FLIPRtetra system (Molecular Devices).
The cells were obtained as frozen cells in cryo-vials and stored until use at −150° C. Cells were grown in culture medium (MEM/EBSS medium with 10% FCS and 0.4 mg/ML Geneticin). […] For sub-culturing cells were detached from flasks by Versene. At the day before the assay, cells were detached, washed twice with medium (MEM/EBSS medium with 10% FCS) and 20000 cells in 20 μl/well were seeded to Poly D-Lysin biocoated 384-well plates (black, clear bottom, Cat. 356697) from Corning. Plates were incubated for 24 hours at 37° C./5% CO2 before use in the assay.
The test compounds were dissolved in 100% DMSO at a concentration of 10 mM and in a first step diluted in DMSO to a concentration of 5 mM, followed by serial dilution steps in 100% DMSO. Dilution factor and number of dilution steps may vary according to needs. Typically 8 different concentrations by 1:5 dilutions were prepared, further intermediate dilutions (1:20) of the substances were carried out with HBSS/HEPES buffer (1×HEPES, Cat. 14065 from Gibco, 20 mM HEPES, Cat. 83264 from SIGMA, 0.1% BSA Cat. 11926 from Invitrogen, pH 7,4
At the assay day cells were washed 3× with assay puffer, 20 μL buffer remained in the wells after washing. 10 μL Ca6 kit (Cat. R8191 MolecularDevices) loading buffer in HBSS/HEPES was added to the cells and the plates were incubated with lid for 120 minutes at […]. 10 μL of compound or controls in HBSS/HEPES buffer/5% DMSO from the intermediate dilution plate were carefully added to the wells. […] Finally 10 μL of the agonist AITC 50 μM dissolved in HBSS/HEPES buffer/0.05% DMSO (final concentration 10 μM) was added to the wells followed by an additional read on the FLIPRtetra device for 10 minutes. The area under the signal curve (AUC) after AITC addition was used for IC50/% inhibition calculations
Data Evaluation and Calculation:
Each assay microtiter plate contained wells with vehicle (1% DMSO) controls instead of compound as controls for AITC induced luminescence (100% CTL; high controls) and wells with vehicle controls without AITC as controls for non-specific changes in luminescence (0% CTL; low controls).
The analysis of the data was performed by the calculation of the area under signal curve of the individual wells. Based on this values the % value for the measurement of each substance concentration was calculated (AUC(sample)−AUC(low))*100/(AUC(high)−AUC(low)) using MegaLab software (in house development). The IC50 values were calculated from the % control values using MegaLab software. Calculation: [y=(a−d)/(1+(x/c)^b)+d], a=low value, d=high value; x=cone M; c=IC50 M; b=hill; y=% ctrl

[1] = Assay B: Microsomal clearance; type: in vitro ADME, human; settings: pooled liver microsomes, 1 μM test compound, 37° C.
Experimental: Assay B: Microsomal Clearance:
The metabolic degradation of the test compound is assayed at 37° C. with pooled liver microsomes. The final incubation volume of 100 μl per time point contains TRIS buffer pH 7.6 at RT (0.1 M), magnesium chloride (5 mM), microsomal protein (1 mg/ml) and the test compound at a final concentration of 1 μM.
Following a short preincubation period at 37° C., the reactions are initiated by addition of beta-nicotinamide adenine dinucleotide phosphate, reduced form (NADPH, 1 mM) and terminated by transferring an aliquot into solvent after different time points (0, 5, 15, 30, 60 min). Additionally, the NADPH-independent degradation is monitored in incubations without NADPH, terminated at the last time point. The [%] remaining test compound after NADPH independent incubation is reflected by the parameter c(control) (metabolic stability). The quenched incubations are pelleted by centrifugation (10000 g, 5 min).
An aliquot of the supernatant is assayed by LC-MS/MS for the amount of parent compound. The half-life (t½ INVITRO) is determined by the slope of the semilogarithmic plot of the concentration-time profile.
The intrinsic clearance (CL_[…]) is calculated by considering the amount of protein in the incubation: CL_[…] [μl/min/mg protein]=(Ln 2/(half-life [min]*protein content [mg/ml]))*1000 CL_[…]_INVIVO [ml/min/kg]=(CL_[…] [μL/min/mg protein]×MPPGL [mg protein/g liver]×liver factor [g/kg body weight])/1000 Qh [%]=CL [ml/min/kg]/hepatic blood flow [ml/min/kg])
(§1) Hepatocellularity, human: 120×10e6 cells/g liver
(§2) Liver factor, human: 25.7 g/kg bodyweight
(§3) Blood flow, human: 21 ml/(min×kg)

[2] = Assay C: Hepatocyte clearance; type: in vitro ADME, human; settings: hepatocyte suspension, 1 μM test compound
Experimental: Assay C: Hepatocyte Clearance
The metabolic degradation of the test compound is assayed in a hepatocyte suspension. Hepatocytes (cryopreserved) are incubated in. Dulbecco's modified eagle medium (supplemented with 3.5 μg glucagon/500 mL, 2.5 mg insulin/500 mL and 3.75 mg/500 mL hydrocortison) containing 5% or 50% species serum.
Following a 30 min preincubation in an incubator (37° C., 10% CO2) 5 μl of test compound solution (80 μM; from 2 mM in DMSO stock solution diluted 1:25 with medium) are added into 395 μl hepatocyte suspension (cell density in the range 0.25-5 Mio cells/mL depending on the species, typically 1 Mio cells/mL; final concentration of test compound 1 μM, final DMSO concentration 0.05%).
The cells are incubated for six hours (incubator, orbital shaker) and samples (25 μl) are taken at 0, 0.5, 1, 2, 4 and 6 hours. Samples are transferred into acetonitrile and pelleted by centrifugation (5 min). The supernatant is transferred to a new 96-deepwell plate, evaporated under nitrogen and resuspended.
Decline of parent compound is analyzed by HPLC-MS/MS
CLint is calculated as follows CL_[…]=Dose/AUC=(C0/CD)/(AUD+clast/k)×1000/60. CO: initial concentration in the incubation [μM], CD: cell density of vital cells [10e6 cells/mL], AUD: area under the data [μM×h], clast: concentration of last data point [μM], k: slope of the regression line for parent decline [h-1].
The calculated in vitro hepatic intrinsic clearance can be scaled up to the intrinsic in vivo hepatic Clearance and used to predict hepatic in vivo blood clearance (CL) by the use of a liver model (well stirred model). CL_[…]_INVIVO [ml/min/kg]=(CL_[…] [μL/min/10e6 cells]×hepatocellularity [10e6 cells/g liver]×liver factor [g/kg body weight])/1000 CL [ml/min/kg]=CL_[…]_INVIVO [ml/min/kg]×hepatic blood flow [ml/min/kg]/(CL_[…]_INVIVO [ml/min/kg]+hepatic blood flow [ml/min/kg]) Qh [%]=CL [ml/min/kg]/hepatic blood flow [ml/min/kg])
as §1, §2, §3

[3] = Assay D: Metabolism in human hepatocytes in vitro; type: in vitro ADME; settings: primary human hepatocytes, 10 μM
Experimental: Assay D: Metabolism in Human Hepatocytes In Vitro
The metabolic pathway of a test compound is investigated using primary human hepatocytes in suspension.
Following a 30 min preincubation in a cell culture incubator (37° C., 10% CO2), test compound solution is spiked into the hepatocyte suspension to obtain a final cell density of 1.0*10^6 to 4.0*10^6 cells/ml (depending on the metabolic turnover rate of the compound observed with primary human hepatocytes), a final test compound concentration of 10 μM, and a final DMSO concentration of 0.05%.
The cells are incubated for six hours in a cell culture incubator on a horizontal shaker, and samples are removed from the incubation after 0, 0.5, 1, 2, 4 or 6 hours, depending on the metabolic turnover rate. Samples are quenched with acetonitrile and pelleted by centrifugation. The supernatant is transferred to a 96-deepwell plate, evaporated under nitrogen and resuspended prior to bioanalysis by liquid chromatography-high resolution mass spectrometry for identification of putative metabolites.

human TRPA1 ion channel, sequence (O75762 whole entry): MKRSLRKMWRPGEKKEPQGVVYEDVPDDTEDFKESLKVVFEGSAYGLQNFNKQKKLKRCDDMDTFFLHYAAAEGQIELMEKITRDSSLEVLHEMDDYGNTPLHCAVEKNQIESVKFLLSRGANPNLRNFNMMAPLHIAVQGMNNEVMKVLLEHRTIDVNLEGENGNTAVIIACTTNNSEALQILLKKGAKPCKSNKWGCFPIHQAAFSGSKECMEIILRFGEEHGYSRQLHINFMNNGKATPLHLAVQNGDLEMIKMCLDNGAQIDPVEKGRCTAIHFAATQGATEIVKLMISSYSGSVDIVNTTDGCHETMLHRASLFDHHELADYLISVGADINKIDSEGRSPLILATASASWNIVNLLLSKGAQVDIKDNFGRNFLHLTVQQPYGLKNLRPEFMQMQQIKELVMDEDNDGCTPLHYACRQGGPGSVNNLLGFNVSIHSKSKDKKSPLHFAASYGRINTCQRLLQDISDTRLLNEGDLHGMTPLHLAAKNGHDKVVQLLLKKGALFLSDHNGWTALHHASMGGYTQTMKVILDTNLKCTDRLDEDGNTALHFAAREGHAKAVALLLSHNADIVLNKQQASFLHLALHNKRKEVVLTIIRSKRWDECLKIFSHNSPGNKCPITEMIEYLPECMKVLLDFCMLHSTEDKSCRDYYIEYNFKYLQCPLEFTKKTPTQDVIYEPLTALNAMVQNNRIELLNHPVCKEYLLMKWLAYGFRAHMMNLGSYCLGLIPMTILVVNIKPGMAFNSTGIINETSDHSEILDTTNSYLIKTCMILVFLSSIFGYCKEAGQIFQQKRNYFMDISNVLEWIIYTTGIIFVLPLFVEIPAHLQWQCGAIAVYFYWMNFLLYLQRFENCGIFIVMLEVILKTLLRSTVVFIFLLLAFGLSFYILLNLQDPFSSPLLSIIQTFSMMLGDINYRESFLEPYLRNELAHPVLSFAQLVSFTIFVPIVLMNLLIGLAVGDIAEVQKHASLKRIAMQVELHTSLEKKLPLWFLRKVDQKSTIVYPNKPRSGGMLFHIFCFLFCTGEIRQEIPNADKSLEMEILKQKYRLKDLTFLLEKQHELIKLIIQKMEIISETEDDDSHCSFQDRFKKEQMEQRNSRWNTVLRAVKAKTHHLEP

IC50 (human TRPA1 ion channel): 11 nM
human LM [% Qh] [1]: <23 % Qh
human Hepatocytes [% Qh] [2]: 7 % Qh
Major metabolite observed: Mechanism ([3]; Metabolite M1): Oxygenation
Major metabolite observed: Mechanism ([3]; Metabolite M2): Dehydrogenation
Major metabolite observed: Mechanism ([3]; Metabolite M3): Glucuronidation
Structure (SMILES): O=C1NCCc2c1sc1ncn(Cc3nnn(C[C@H](O)c4ccc(Cl)cc4)n3)c(=O)c21 [Example 6]
